What was measured:
[1] = biological target: F-ATP synthase (subunit c) (Mycobacterium tuberculosis, UniProt A1KI93); format: biochemical
[2] = biological target: T1, F-ATP synthase (subunit ε) (Mycolicibacterium smegmatis, UniProt A0R1Z9); assay: NADH-driven ATP synthesis of inverted membrane vesicles; format: biochemical
T1 construct: gene atpC

[3] = biological target: T2, Mtε (F-ATP synthase subunit ε) (Mycobacterium tuberculosis, UniProt P9WPV1); format: binding
T2 construct: gene atpC; recombinant Mtε, 121 residues (N-terminal domain M1-E87, C-terminal domain I90-D121), 15N-labeled
T2 sequence (P9WPV1 whole entry, the tested form may be a part): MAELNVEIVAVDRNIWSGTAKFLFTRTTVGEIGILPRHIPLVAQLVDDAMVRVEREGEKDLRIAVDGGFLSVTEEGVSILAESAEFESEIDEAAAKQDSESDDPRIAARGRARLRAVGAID

[4] = biological target: F-ATP synthase (subunit ε) (Mycobacterium tuberculosis, UniProt A1KI99); format: biochemical
Chain of F-ATP synthase (subunit ε) (Mycobacterium tuberculosis, UniProt A1KI99) (A1KI99 whole entry): as the sequence (P9WPV1 whole entry, the tested form may be a part) above
Chain of F-ATP synthase (subunit ε) (Mycobacterium tuberculosis, UniProt A1KI99) (A1KI96 whole entry partner): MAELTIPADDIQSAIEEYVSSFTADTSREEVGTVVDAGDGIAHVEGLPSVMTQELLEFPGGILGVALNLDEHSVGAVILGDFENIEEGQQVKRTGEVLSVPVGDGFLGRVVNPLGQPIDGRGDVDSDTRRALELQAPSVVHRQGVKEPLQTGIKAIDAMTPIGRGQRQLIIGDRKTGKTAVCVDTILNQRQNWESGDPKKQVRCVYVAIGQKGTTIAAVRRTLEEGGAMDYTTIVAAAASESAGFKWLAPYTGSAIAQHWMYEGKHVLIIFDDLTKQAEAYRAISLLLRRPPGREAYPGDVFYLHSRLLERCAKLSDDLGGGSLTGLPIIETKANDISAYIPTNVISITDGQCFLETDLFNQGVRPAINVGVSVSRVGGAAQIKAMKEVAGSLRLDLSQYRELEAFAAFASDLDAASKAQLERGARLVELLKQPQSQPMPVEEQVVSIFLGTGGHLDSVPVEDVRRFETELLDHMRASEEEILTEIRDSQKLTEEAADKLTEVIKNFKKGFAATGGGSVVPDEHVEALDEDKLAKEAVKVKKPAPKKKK
Chain of F-ATP synthase (subunit ε) (Mycobacterium tuberculosis, UniProt A1KI99) (A1KI98 whole entry partner): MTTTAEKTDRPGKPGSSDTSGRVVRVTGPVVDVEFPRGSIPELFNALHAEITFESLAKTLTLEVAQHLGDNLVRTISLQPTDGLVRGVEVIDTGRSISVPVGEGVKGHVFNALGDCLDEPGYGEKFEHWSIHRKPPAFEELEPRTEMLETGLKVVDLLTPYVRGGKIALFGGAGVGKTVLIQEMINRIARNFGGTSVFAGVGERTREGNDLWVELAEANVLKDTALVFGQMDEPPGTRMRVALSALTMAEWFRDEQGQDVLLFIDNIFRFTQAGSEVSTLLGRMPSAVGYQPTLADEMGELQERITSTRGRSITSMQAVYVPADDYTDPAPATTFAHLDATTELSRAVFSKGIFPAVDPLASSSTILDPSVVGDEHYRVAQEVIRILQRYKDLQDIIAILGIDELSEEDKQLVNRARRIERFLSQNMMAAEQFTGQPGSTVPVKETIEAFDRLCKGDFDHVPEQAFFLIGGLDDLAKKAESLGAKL
Chain of F-ATP synthase (subunit ε) (Mycobacterium tuberculosis, UniProt A1KI99) (A1KI97 whole entry partner): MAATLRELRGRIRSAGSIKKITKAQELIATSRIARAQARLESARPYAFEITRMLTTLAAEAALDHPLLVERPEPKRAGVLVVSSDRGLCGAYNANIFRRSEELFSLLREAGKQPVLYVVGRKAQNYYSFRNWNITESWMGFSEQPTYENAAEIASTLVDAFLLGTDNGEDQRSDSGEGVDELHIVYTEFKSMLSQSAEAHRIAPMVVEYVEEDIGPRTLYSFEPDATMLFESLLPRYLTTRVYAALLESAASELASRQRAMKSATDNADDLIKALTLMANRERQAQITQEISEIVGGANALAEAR
Chain of F-ATP synthase (subunit ε) (Mycobacterium tuberculosis, UniProt A1KI99) (A1KI93 whole entry partner): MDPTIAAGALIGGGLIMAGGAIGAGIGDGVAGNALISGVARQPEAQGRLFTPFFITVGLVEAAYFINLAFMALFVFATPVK

Chain of F-ATP synthase (subunit c) (A1KI93 whole entry): as the sequence (A1KI93 whole entry partner) above
Chain of F-ATP synthase (subunit c) (A1KI99 whole entry partner): as the sequence (P9WPV1 whole entry, the tested form may be a part) above
Chain of F-ATP synthase (subunit c) (A1KI96 whole entry partner): as the sequence (A1KI96 whole entry partner) above
Chain of F-ATP synthase (subunit c) (A1KI98 whole entry partner): as the sequence (A1KI98 whole entry partner) above

SMILES: COc1nc2ccc(Br)cc2cc1[C@@H](c1ccccc1)[C@@](O)(CCN(C)C)c1cccc2ccccc12 [bedaquiline]
- IC50 [1]: 7.05 ± 1.32 nM

SMILES: O=C(O[C@@H]1Cc2c(O)cc(O)cc2O[C@@H]1c1cc(O)c(O)c(O)c1)c1cc(O)c(O)c(O)c1 [epigallocatechin gallate]
- IC50 [2]: 155.6 ± 1.2 nM
- 1H-15N HSQC NMR titration, Mtε:EGCG 1:2 [3]: gradual line broadening with increasing molar ratios were observed, which demonstrate binding of EGCG with Mtε
- IC50 [4]: 2200 ± 300 nM
